The record followed here is patent EP4722209A1 (Beijing Shenogen Pharma Group, priority 2023, dated 2024).

Bounds are passed on as bounds.

The experiment addresses T1, ERα (Homo sapiens, UniProt P03372).
T1 construct: host or cells: MCF-7
T1 sequence (P03372 1-595): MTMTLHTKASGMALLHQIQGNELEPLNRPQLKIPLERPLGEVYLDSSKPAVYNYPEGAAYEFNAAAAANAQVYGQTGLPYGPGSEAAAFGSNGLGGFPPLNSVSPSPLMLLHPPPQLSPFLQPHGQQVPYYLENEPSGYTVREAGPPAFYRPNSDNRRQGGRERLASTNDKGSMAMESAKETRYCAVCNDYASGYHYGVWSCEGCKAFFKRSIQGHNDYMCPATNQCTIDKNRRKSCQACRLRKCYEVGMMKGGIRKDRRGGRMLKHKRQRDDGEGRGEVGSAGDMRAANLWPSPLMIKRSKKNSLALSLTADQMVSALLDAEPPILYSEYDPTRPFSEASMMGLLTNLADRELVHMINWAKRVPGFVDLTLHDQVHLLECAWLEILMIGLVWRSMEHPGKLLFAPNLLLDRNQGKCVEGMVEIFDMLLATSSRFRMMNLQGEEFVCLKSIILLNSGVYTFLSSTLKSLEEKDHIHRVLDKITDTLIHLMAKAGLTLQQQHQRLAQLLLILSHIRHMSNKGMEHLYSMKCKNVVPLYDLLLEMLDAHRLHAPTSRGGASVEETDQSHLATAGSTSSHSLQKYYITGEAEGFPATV
The experiment in a line: ER degradation activity in MCF-7 cells (Western blot, grayscale intensity). In kind it is cell-based. As to conditions: 6 hours treatment, 1 nM to 100 nM, concentration required to degrade 50% of the target protein. The protocol:
ERα-positive human breast cancer cells MCF-7 (ATCC, HTB-22) were cultured with EMEM medium (ATCC, catalog number 30-2003) containing 10% fetal bovine serum (Thermo Fisher, catalog number 10099141) and 10 µg/mL bovine insulin in 25 cm^2 or 75 cm^2 plastic tissue culture flasks in a 37 °C incubator with 5% CO2. The cells were passaged 2 to 3 times per week. MCF-7 cells were seeded in 6-well plate at 1×10^6 cells/well with 1.8 mL culture medium per well, and cultured in a 37 °C incubator with 95% air and 5% CO2. After 24 hours, the test compounds were added: the compounds were serially diluted 10-fold in DMSO starting from 10 mM (dissolved in DMSO) to prepare gradient stock solutions. A complete culture medium containing 1% DMSO was prepared for further dilution, temporarily named as the "dilution buffer." Working solutions were prepared by diluting each stock solution with 99 times the volume of dilution buffer, that is, by adding 1 µL of the 10 mM stock solution to 99 µL of the dilution buffer and mixing thoroughly.
Finally, […] of the working solution was added to the cell-seeded culture plate. The final concentration of DMSO in the cell culture medium was 0.2%, and the final concentration of the test compounds ranged from 1 nM to 100 nM. The cells were then incubated at 37 °C for 6 hours.
The culture medium was removed, and the cells were washed twice with ice cold PBS. 1 mL of PBS was added to each well, and the cells were collected into EP tubes using a cell scraper, and centrifuged at 4 °C, 4000 rpm for 5 minutes. PBS was aspirated. Total protein was extracted using the Minute™ Mammalian Tissue/Cell Total Protein Extraction Reagent. The protein concentration was measured using the BCA protein assay kit. 30 µg of protein was taken and mixed with 5× SDS-PAGE loading buffer, boiled for 10 minutes, and cooled. The samples were loaded into wells of a precast gel, with constant voltage at 80 V for 30 minutes, and then the voltage was changed to 120 V after the samples entered the resolving gel. The "sandwich" (sponge - filter paper - gel - membrane - filter paper - sponge) was assembled for Bio-Rad's Transblot. Transfer was performed for 1 hour at 0.3 amp at 4 °C. The sample was blocked with 5% fat-free milk for 1 hour, and incubated with Estrogen Receptor alpha Antibody (Thermo Fisher, catalog number MA5-14104) overnight at 4 °C. The membrane was washed with TBST to remove non-specifically bound antibodies, and then incubated with goat anti-mouse IgG-HRP secondary antibody for 1 hour at room temperature, and was visualized using ECL. The protein degradation level was calculated by measuring the grayscale intensity.
The DC50 values (i.e., the concentration of the test compounds required to degrade 50% of the target protein) were calculated and shown in Table 1. A corresponds to a DC50 value below 10 nM, B corresponds to a DC50 value greater than 10 nM and less than 100 nM, and C corresponds to DC50 values greater than 100 nM. Table 1. The DC50 values of exemplary compounds in MCF-7 cells

`CC1(C)CC(=C(c2ccc(N3CCN(CC4CN(c5ccc6c(c5)C(=O)N(C5CCC(=O)NC5=O)C6=O)C4)CC3)cc2)c2ccc3[nH]nc(F)c3c2)CC(C)(C)O1` (stereo not drawn) [Compound 1] showed a DC50 above 100 nM. With `CC1(C)CC(=C(c2ccc3[nH]nc(F)c3c2)c2c(F)cc(N3CCN(C4CN(c5ccc6c(c5)C(=O)N(C5CCC(=O)NC5=O)C6=O)C4)CC3)cc2F)CC(C)(C)O1` (stereo not drawn) [Compound 3] the figure was above 100 nM; with `CC1(C)CC(=C(c2ccc(N3CCN(CC4CCN(c5ccc6c(c5)C(=O)N(C5CCC(=O)NC5=O)C6=O)CC4)CC3)nc2)c2ccc3[nH]nc(F)c3c2)CC(C)(C)O1` (stereo not drawn) [Compound 4], above 100 nM. In the case of `CC1(C)CC(=C(c2ccc(OC3CN(CC4CCN(c5ccc6c(c5)C(=O)N(C5CCC(=O)NC5=O)C6=O)CC4)C3)nc2)c2ccc3[nH]nc(F)c3c2)CC(C)(C)O1` (stereo not drawn) [Compound 7] it was 10 to 100 nM; in that of `CC1(C)CC(=C(c2ccc(OC3CN(CC4CCN(c5ccc6c(c5)C(=O)N(C5CCC(=O)NC5=O)C6=O)CC4)C3)cc2)c2ccc3[nH]nc(F)c3c2)CC(C)(C)O1` (stereo not drawn) [Compound 8], above 100 nM; in that of `CC1(C)CC(=C(c2ccc3[nH]nc(F)c3c2)c2c(F)cc(N3CCN(CC4CN(c5ccc6c(c5)C(=O)N(C5CCC(=O)NC5=O)C6=O)C4)CC3)cc2F)CC(C)(C)O1` (stereo not drawn) [Compound 9], above 100 nM. With `CC1(C)CC(=C(c2ccc3[nH]nc(F)c3c2)c2c(F)cc(N3CCN(C4CCN(c5ccc6c(c5)C(=O)N(C5CCC(=O)NC5=O)C6=O)CC4)CC3)cc2F)CC(C)(C)O1` (stereo not drawn) [Compound 10] the figure was above 100 nM; with `CC1(C)CC(=C(c2ccc3[nH]nc(F)c3c2)c2c(F)cc(N3CCC(N4CCN(c5ccc6c(c5)C(=O)N(C5CCC(=O)NC5=O)C6=O)CC4)CC3)cc2F)CC(C)(C)O1` (stereo not drawn) [Compound 11], below 10 nM; with `CC1(C)CC(=C(c2ccc3[nH]nc(F)c3c2)c2c(F)cc(N3CCC(CN4CCN(c5ccc6c(c5)C(=O)N(C5CCC(=O)NC5=O)C6=O)CC4)CC3)cc2F)CC(C)(C)O1` (stereo not drawn) [Compound 12], 10 to 100 nM. Turning to `CC1(C)CC(=C(c2ccc(N3CC(N4CCN(c5ccc6c(c5)C(=O)N(C5CCC(=O)NC5=O)C6=O)CC4)C3)cc2)c2ccc3[nH]nc(F)c3c2)CC(C)(C)O1` (stereo not drawn) [Compound 13], the DC50 is above 100 nM. With `CC1(C)CC(=C(c2ccc3[nH]nc(F)c3c2)c2c(F)cc(OC3CN(C4CN(c5ccc6c(c5)C(=O)N(C5CCC(=O)NC5=O)C6=O)C4)C3)cc2F)CC(C)(C)O1` (stereo not drawn) [Compound 14] the figure was above 100 nM; with `CC1(C)CC(=C(c2ccc3[nH]nc(F)c3c2)c2c(F)cc(N3CC(CN4CCN(c5ccc6c(c5)C(=O)N(C5CCC(=O)NC5=O)C6=O)CC4)C3)cc2F)CC(C)(C)O1` (stereo not drawn) [Compound 15], 10 to 100 nM; with `CC1(C)CC(=C(c2ccc(OCCN3CCN(c4ccc5c(c4)C(=O)N(C4CCC(=O)NC4=O)C5=O)CC3)cc2)c2ccc3[nH]nc(F)c3c2)CC(C)(C)O1` (stereo not drawn) [Compound 16], above 100 nM. With `CC1(C)CC(=C(c2ccc(N3CC(CN4CCN(c5ccc6c(c5)C(=O)N(C5CCC(=O)NC5=O)C6=O)CC4)C3)cc2)c2ccc3[nH]nc(F)c3c2)CC(C)(C)O1` (stereo not drawn) [Compound 17] the figure was above 100 nM.

The molecule `CC1(C)CC(=C(c2ccc(OC3CN(C4CCN(c5ccc6c(c5)C(=O)N(C5CCC(=O)NC5=O)C6=O)CC4)C3)nc2)c2ccc3[nH]nc(F)c3c2)CC(C)(C)O1` (stereo not drawn) [Compound 18] gave a half-maximal degradation concentration (DC50) above 100 nM. For `CC1(C)CC(=C(c2ccc(OC3CN(C4CN(c5ccc6c(c5)C(=O)N(C5CCC(=O)NC5=O)C6=O)C4)C3)nc2)c2ccc3[nH]nc(F)c3c2)CC(C)(C)O1` (stereo not drawn) [Compound 19], the DC50 is above 100 nM. In the case of `CC1(C)CC(=C(c2ccc(OC3CN(C4CCN(c5ccc6c(c5)C(=O)N(C5CCC(=O)NC5=O)C6=O)CC4)C3)cc2)c2ccc3[nH]nc(F)c3c2)CC(C)(C)O1` (stereo not drawn) [Compound 20] it was above 100 nM; in that of `CC1(C)CC(=C(c2ccc(OC3CN(C4CN(c5ccc6c(c5)C(=O)N(C5CCC(=O)NC5=O)C6=O)C4)C3)cc2)c2ccc3[nH]nc(F)c3c2)CC(C)(C)O1` (stereo not drawn) [Compound 21], above 100 nM.
